Data reported in ChEMBL document CHEMBL3526121, “Pharmacokinetics, bioavailability, tissue distribution, excretion, and metabolite identification of methoxyflavones in Kaempferia parviflora extract in rats” (Drug Metab Dispos, 2012).
One block for each molecule: values may come before it.

What was measured:
Rattus norvegicus [1] = assay: Volume of distribution in Wistar rat at 250 mg/kg, po by HPLC analysis; assay type: ADME, organism-based; design: dose 250 mg/kg, route oral; settings: in vivo
[2] = Oral bioavailability in Wistar rat at 250 mg/kg by HPLC analysis; assay type: ADME, organism-based; settings: in vivo
[3] = Cmax in Wistar rat at 250 mg/kg, po by HPLC analysis; assay type: ADME, organism-based; design: dose 250 mg/kg, route oral; settings: in vivo
[4] = Drug excretion in Wistar rat feces at 750 mg/kg, po after up to 72 hrs by HPLC-UV analysis; assay type: ADME, organism-based; design: dose 750 mg/kg, route oral; settings: faeces, read-out: Drug excretion
[5] = Tmax in Wistar rat brain at 750 mg/kg, po by LC-MS/MS analysis; assay type: ADME, organism-based; design: dose 750 mg/kg, route oral
[6] = Cmax in Wistar rat kidney at 750 mg/kg, po by LC-MS/MS analysis; assay type: ADME, organism-based; design: dose 750 mg/kg, route oral
[7] = Drug excretion in Wistar rat urine at 750 mg/kg, po after 72 hrs by HPLC-UV analysis; assay type: ADME, organism-based; design: dose 750 mg/kg, route oral; settings: in vivo
[8] = AUC (0.083 to 4 hrs) in Wistar rat testes at 750 mg/kg, po by LC-MS/MS analysis; assay type: ADME, organism-based, Testis; design: time 0.083-4 hr, dose 750 mg/kg, route oral; settings: in vivo
[9] = Tmax in Wistar rat lung at 750 mg/kg, po by LC-MS/MS analysis; assay type: ADME, organism-based; design: dose 750 mg/kg, route oral
[10] = Drug metabolism in Wistar rat assessed as excretion of 7-methoxy-4-oxo-2-phenyl-4H-chromen-5-yl hydrogen sulfate in urine at 750 mg/kg, po by LC-MS and LC-MS/MS analysis; assay type: ADME, organism-based; design: dose 750 mg/kg, route oral; settings: in vivo
Rattus norvegicus [11] = assay: Absorption rate constant in Wistar rat at 250 mg/kg, po by HPLC analysis; assay type: ADME, organism-based; design: dose 250 mg/kg, route oral; settings: in vivo
[12] = Elimination rate constant in Wistar rat at 250 mg/kg, po by HPLC analysis; assay type: ADME, organism-based; design: dose 250 mg/kg, route oral; settings: in vivo, read-out: Ke (converted)
[13] = Drug excretion in Wistar rat urine at 750 mg/kg, po after 12 hrs by HPLC-UV analysis; assay type: ADME, organism-based; design: dose 750 mg/kg, route oral; settings: in vivo
[14] = Tmax in Wistar rat liver at 750 mg/kg, po by LC-MS/MS analysis; assay type: ADME, organism-based; design: dose 750 mg/kg, route oral
[15] = Drug excretion in Wistar rat feces at 750 mg/kg, po after 12 to 18 hrs by HPLC-UV analysis; assay type: ADME, organism-based; design: dose 750 mg/kg, route oral; settings: in vivo
[16] = Cmax in Wistar rat lung at 750 mg/kg, po by LC-MS/MS analysis; assay type: ADME, organism-based; design: dose 750 mg/kg, route oral
[17] = Cmax in Wistar rat brain at 750 mg/kg, po by LC-MS/MS analysis; assay type: ADME, organism-based; design: dose 750 mg/kg, route oral
[18] = Drug metabolism in Wistar rat assessed as excretion of 5,7-dihydroxy-2-phenyl-4H-chromen-4-one in urine/feces at 750 mg/kg, po by LC-MS and LC-MS/MS analysis; assay type: ADME, organism-based; design: dose 750 mg/kg, route oral; settings: in vivo
Brain = assay: AUC (0.083 to 4 hrs) in Wistar rat brain at 750 mg/kg, po by LC-MS/MS analysis; assay type: ADME, organism-based; design: time 0.083-4 hr, dose 750 mg/kg, route oral; settings: in vivo
[19] = Drug excretion in Wistar rat feces at 750 mg/kg, po after 12 hrs by HPLC-UV analysis; assay type: ADME, organism-based; design: dose 750 mg/kg, route oral; settings: in vivo
Lung = assay: AUC (0.083 to 4 hrs) in Wistar rat lung at 750 mg/kg, po by LC-MS/MS analysis; assay type: ADME, organism-based; design: time upper 4 hr, time lower 0.083 hr, dose 750 mg/kg, route oral; settings: in vivo
[20] = Clearance in Wistar rat at 250 mg/kg, po by HPLC analysis; assay type: ADME, organism-based; design: dose 250 mg/kg, route oral; settings: in vivo
[21] = Elimination rate constant in Wistar rat at 250 mg/kg, iv by HPLC analysis; assay type: ADME, organism-based; design: dose 250 mg/kg, route intravenous; settings: Wistar, in vivo, read-out: Ke (converted)
[22] = Clearance in Wistar rat at 250 mg/kg, iv by HPLC analysis; assay type: ADME, organism-based; design: dose 250 mg/kg, route intravenous; settings: in vivo
[23] = Tmax in Wistar rat kidney at 750 mg/kg, po by LC-MS/MS analysis; assay type: ADME, organism-based; design: dose 750 mg/kg, route oral
Kidney = assay: AUC (0.083 to 4 hrs) in Wistar rat kidney at 750 mg/kg, po by LC-MS/MS analysis; assay type: ADME, organism-based; design: time 0.083-4 hr, dose 750 mg/kg, route oral; settings: in vivo
[24] = Tmax in Wistar rat at 250 mg/kg, po by HPLC analysis; assay type: ADME, organism-based; design: dose 250 mg/kg, route oral; settings: in vivo
[25] = Half life in Wistar rat at 250 mg/kg, iv by HPLC analysis; assay type: ADME, organism-based; design: dose 250 mg/kg, route intravenous; settings: Wistar, in vivo
[26] = Half life in Wistar rat at 250 mg/kg, po by HPLC analysis; assay type: ADME, organism-based; design: dose 250 mg/kg, route oral; settings: in vivo
[27] = Tmax in Wistar rat testes at 750 mg/kg, po by LC-MS/MS analysis; assay type: ADME, organism-based, Testis; design: dose 750 mg/kg, route oral
[28] = Drug excretion in Wistar rat urine at 750 mg/kg, po after up to 72 hrs by HPLC-UV analysis; assay type: ADME, organism-based; design: dose 750 mg/kg, route oral; settings: read-out: Drug excretion
[29] = Cmax in Wistar rat testes at 750 mg/kg, po by LC-MS/MS analysis; assay type: ADME, organism-based, Testis; design: dose 750 mg/kg, route oral
[30] = AUC in Wistar rat at 250 mg/kg, iv by HPLC analysis; assay type: ADME, organism-based; design: dose 250 mg/kg, route intravenous; settings: plasma
[31] = Cmax in Wistar rat liver at 750 mg/kg, po by LC-MS/MS analysis; assay type: ADME, organism-based; design: dose 750 mg/kg, route oral
[32] = Drug metabolism in Wistar rat assessed as excretion of 2-phenyl-5-((2S,3R,4S,5S,6R)-3,4,5-trihydroxy-6-(hydroxymethyl)tetrahydro-2H-pyran-2-yloxy)-4H-chromen-4-one in urine at 750 mg/kg, po by LC-MS and LC-MS/MS analysis; assay type: ADME, organism-based; design: dose 750 mg/kg, route oral; settings: in vivo
Liver = assay: AUC (0.083 to 4 hrs) in Wistar rat liver at 750 mg/kg, po by LC-MS/MS analysis; assay type: ADME, organism-based; design: time 0.083-4 hr, dose 750 mg/kg, route oral; settings: in vivo
[33] = AUC in Wistar rat at 250 mg/kg, po by HPLC analysis; assay type: ADME, organism-based; design: dose 250 mg/kg, route oral; settings: plasma
[34] = Drug excretion in Wistar rat urine at 750 mg/kg, po after 18 to 24 hrs by HPLC-UV analysis; assay type: ADME, organism-based; design: dose 750 mg/kg, route oral; settings: in vivo
[35] = Drug metabolism in Wistar rat urine/feces treated with 750 mg/kg, po of 5,7-dimethoxyflavone by LC-MS and LC-MS/MS analysis; assay type: ADME, organism-based; design: dose 750 mg/kg, route oral; settings: in vivo
[36] = Drug metabolism in Wistar rat urine/feces treated with 750 mg/kg, po of 5,7,4'-trimethoxyflavone by LC-MS and LC-MS/MS analysis; assay type: ADME, organism-based; design: dose 750 mg/kg, route oral; settings: in vivo
[37] = Drug metabolism in Wistar rat urine/feces treated with 750 mg/kg, po of 3,5,7,3',4'-pentamethoxyflavone by LC-MS and LC-MS/MS analysis; assay type: ADME, organism-based; design: dose 750 mg/kg, route oral; settings: in vivo

Vd (Rattus norvegicus [1]): 2957.53 mL
bioavailability [2]: 2.1%
Cmax [3]: 780 ng/mL
dose excreted at 72 h [4]: 3.1%
Tmax [5]: 3.14 h
Cmax [6]: 1330 ng/g
Drug excretion [7]: metabolite_not_detected
AUC [8]: 1.9 µg·h/g
Tmax [9]: 1.2 h
Drug metabolism [10]: metabolite_detected
ka (Rattus norvegicus [11]): 8.69 h⁻¹
k el [12]: 3.61e-05 s⁻¹
Drug excretion [13]: Active
Tmax [14]: 2.57 h
Drug excretion [15]: Active
Cmax [16]: 2000 ng/g
Cmax [17]: 960 ng/g
Drug metabolism [18]: metabolite_detected
AUC (Brain): 1.91 µg·h/g
Drug excretion [19]: Active
AUC (Lung): 2.17 µg·h/g
CL/F [20]: 6.12 mL/min
k el [21]: 8.89e-05 s⁻¹
clearance [22]: 0.133 mL/min
Tmax [23]: 3.43 h
AUC (Kidney): 2.51 µg·h/g
Tmax [24]: 0.76 h
half-life [25]: 3.75 h
half-life [26]: 5.85 h
Tmax [27]: 2.86 h
dose excreted at 72 h [28]: 0.96%
Cmax [29]: 910 ng/g
AUC [30]: 233 µg·h/mL
Cmax [31]: 3850 ng/g
Drug metabolism [32]: metabolite_detected
AUC (Liver): 8.6 µg·h/g
AUC [33]: 7.01 µg·h/mL
Drug excretion [34]: Active
SMILES: COc1cc(OC)c2c(=O)cc(-c3ccccc3)oc2c1 [CHRYSIN DIMETHYL ETHER]

Drug metabolism [35]: metabolite_detected
SMILES: O=c1cc(-c2ccccc2)oc2cc(O)cc(O)c12 [CHRYSIN]

Drug metabolism [36]: metabolite_detected
SMILES: COc1cc(O)c2c(=O)cc(-c3ccc(O)cc3)oc2c1 [GENKWANIN]

Drug metabolism [37]: metabolite_detected
SMILES: COc1cc(O)c2c(=O)c(O)c(-c3ccc(OC)c(O)c3)oc2c1 [OMBUINE]
